This experiment deals with T1, αvβ1 integrin (UniProt G3HZ55+P06756).
T1 construct: expressed in transfected cells; host or cells: CHO cells (elsewhere described as α5-deficient CHO) transfected with human αv
In words: Cell Adhesion Assay (integrin-specific adhesion, αvβ1). It counts as cell-based. The conditions noted are these: CHO cells transfected with human αv adhering to 0.3 μg/ml fibronectin; read-out: Cell Adhesion Assay IC50 range. The protocol:
The effects of compounds on cell adhesion mediated by […], α8β1, αvβ1, αvβ3, αvβ5, αvβ6, and αvβ8 are measured using pairs of cell lines and ligands selected to isolate the effect of each individual integrin. For α5β1 we utilize the colon carcinoma cell line, SW480, plated on 0.3 μg/ml fibronectin, for α8β1, we utilize SW480 cells transfected with human α8 adhering to 1 μg/ml recombinant TGFβ1 LAP [5], for αvβ1 we use Chinese Hamster Ovary Cells (CHO cells) transfected with human αv adhering to 0.3 μg/ml fibronectin [6], for αvβ3 we use SW480 cells transfected with human β3, for αvβ5 we use wild type SW480 cells adhering to 0.1 μg/ml vitronectin. For αvβ6 we use SW480 cells transfected with human β6 adhering to 0.01 μg/ml recombinant human TGFβ1 LAP. For αvβ8 we use glioma cell line (SNB19) expressing β8 adhering to 1 μg/ml recombinant human TGFβ1 LAP.
(§1) The effects of the compound on cell adhesion mediated by αvβ1 integrin were measured using Chinese Hamster Ovary Cells (CHO cells) transfected with human αv adhering to 0.3 μg/ml fibronectin. In every case, we confirmed that adhesion could be inhibited by blocking antibodies to αv and β1. Cells were resuspended in DMEM for 30 min at 4° C. with 10-fold dilutions of the compound with a starting concentration of 10 μM. Each sample was then added to triplicate wells of a 96-well plate which had been coated overnight at 4° C. with the relevant ligand, washed, blocked by 1 hr incubation with 1% BSA, and washed again. Cells were allowed to attach for 30-60 min at 37° C. After incubation, non-adherent cells were removed by discarding the media and spinning the plate top-side down at 500 rpm for 5 minutes. Cells were then fixed and stained with 40 ul of 0.5% Crystal violet, 1% Formaldehyde, 20% Methanol for 30 minutes and lysed with 2% Trition-X. Absorbance was measured at 595 nm in a Microplate reader. For all assays, concentration-response curves were constructed by non-linear regression analysis and IC50 values using Graphpad PRISM (ver 6.0).
as §1, with “Integrin specific” for “effects of the compound on cell”, “assays” for “mediated by αvβ1 integrin”, “In every case, we confirmed that adhesion could be inhibited by blocking antibodies to αv and β1.” left out

pIC50: −log10 of the molar value.

T1 sequence (P06756 31-889 limits assumed): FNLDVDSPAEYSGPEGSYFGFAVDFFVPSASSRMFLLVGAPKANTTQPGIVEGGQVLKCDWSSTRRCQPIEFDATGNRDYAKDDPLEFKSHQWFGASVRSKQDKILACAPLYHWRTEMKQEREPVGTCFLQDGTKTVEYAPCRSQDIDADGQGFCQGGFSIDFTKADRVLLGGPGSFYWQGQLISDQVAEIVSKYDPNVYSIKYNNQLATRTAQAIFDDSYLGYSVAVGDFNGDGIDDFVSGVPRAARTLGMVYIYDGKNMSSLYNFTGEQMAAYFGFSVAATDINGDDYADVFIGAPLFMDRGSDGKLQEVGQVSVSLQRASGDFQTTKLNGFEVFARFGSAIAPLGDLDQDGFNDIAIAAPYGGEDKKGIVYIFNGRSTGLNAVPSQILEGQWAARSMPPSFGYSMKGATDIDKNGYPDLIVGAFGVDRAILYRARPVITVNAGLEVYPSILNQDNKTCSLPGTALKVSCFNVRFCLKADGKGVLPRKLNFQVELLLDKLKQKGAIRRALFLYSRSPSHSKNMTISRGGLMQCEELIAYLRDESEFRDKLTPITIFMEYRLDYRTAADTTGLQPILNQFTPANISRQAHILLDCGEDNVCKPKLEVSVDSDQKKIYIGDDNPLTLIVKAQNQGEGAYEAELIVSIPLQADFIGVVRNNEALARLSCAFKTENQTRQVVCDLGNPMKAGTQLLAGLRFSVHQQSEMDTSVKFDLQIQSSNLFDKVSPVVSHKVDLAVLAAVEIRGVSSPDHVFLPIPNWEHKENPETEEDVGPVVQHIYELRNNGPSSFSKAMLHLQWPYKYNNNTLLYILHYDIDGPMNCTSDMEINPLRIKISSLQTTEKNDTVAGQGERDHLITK
T1 sequence (P06756 891-1048 limits assumed): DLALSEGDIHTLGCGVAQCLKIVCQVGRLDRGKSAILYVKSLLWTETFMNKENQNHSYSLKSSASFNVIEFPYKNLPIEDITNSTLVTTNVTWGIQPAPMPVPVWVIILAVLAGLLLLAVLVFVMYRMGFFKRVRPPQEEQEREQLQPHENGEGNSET
T1 sequence (G3HZ55 21-798): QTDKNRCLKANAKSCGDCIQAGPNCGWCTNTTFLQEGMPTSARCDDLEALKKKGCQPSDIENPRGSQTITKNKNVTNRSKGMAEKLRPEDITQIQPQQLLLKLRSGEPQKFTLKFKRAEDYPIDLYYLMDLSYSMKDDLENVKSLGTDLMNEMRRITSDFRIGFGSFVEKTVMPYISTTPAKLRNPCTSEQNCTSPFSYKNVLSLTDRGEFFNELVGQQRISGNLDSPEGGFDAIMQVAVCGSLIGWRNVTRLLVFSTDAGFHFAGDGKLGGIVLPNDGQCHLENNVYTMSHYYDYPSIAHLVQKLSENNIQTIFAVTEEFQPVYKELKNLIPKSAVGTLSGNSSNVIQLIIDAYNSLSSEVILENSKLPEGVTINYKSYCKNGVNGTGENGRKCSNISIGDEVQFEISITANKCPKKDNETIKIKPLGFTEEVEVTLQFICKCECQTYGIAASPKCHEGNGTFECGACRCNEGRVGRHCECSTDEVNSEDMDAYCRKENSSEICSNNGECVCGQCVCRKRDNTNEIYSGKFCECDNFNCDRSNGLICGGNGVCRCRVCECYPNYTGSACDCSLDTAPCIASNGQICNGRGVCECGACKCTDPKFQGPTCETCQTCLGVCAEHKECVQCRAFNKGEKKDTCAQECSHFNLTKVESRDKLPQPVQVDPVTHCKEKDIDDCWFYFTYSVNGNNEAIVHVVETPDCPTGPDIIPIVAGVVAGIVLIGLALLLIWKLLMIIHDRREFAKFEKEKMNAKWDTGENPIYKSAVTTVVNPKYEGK

Take `COc1cccc(OC)c1C(=O)N[C@@H](Cc1ccc(NC(=O)CCCNc2ccccn2)cc1)C(=O)O` [HIJ-886, (S)-2-(2,6-dimethoxybenzamido)-3-(4-(4-(pyridin-2-ylamino)butanamido)phenyl)propanoic acid]: the pIC50 – broadly, the negative decadic logarithm of the IC50, by convention in mol/L – is 5.00 to 7.00.

In the case of `Cc1cccc(Cl)c1C(=O)N[C@@H](Cc1ccc(NC(=O)CCCNc2ccccn2)cc1)C(=O)O` [HIJ-888, (S)-2-(2-chloro-6-methylbenzamido)-3-(4-(4-(pyridin-2-ylamino)butanamido)phenyl)propanoic acid], the pIC50 was 5.00 to 7.00. To `O=C(CCCNc1ccccn1)Nc1ccc(C[C@H](NC(=O)c2c(F)cccc2Br)C(=O)O)cc1` [HIJ-889, (S)-2-(2-bromo-6-fluorobenzamido)-3-(4-(4-(pyridin-2-ylamino)butanamido)phenyl)propanoic acid] belongs greater than 7.00; to `Cc1cccc(C)c1C(=O)N[C@@H](Cc1ccc(NC(=O)CCCNc2ccccn2)cc1)C(=O)O` [HIJ-890, (S)-2-(2,6-dimethylbenzamido)-3-(4-(4-(pyridin-2-ylamino)butanamido)phenyl)propanoic acid], greater than 7.00; to `CSc1ccccc1C(=O)N[C@@H](Cc1ccc(NC(=O)CCCNc2ccccn2)cc1)C(=O)O` [HIJ-891, (S)-2-(2-(methylthio)benzamido)-3-(4-(4-(pyridin-2-ylamino)butanamido)phenyl)propanoic acid], 5.00 to 7.00. On to `O=C(CCCNc1ccccn1)Nc1ccc(C[C@H](NC(=O)c2cccc(-c3ccccc3)c2)C(=O)O)cc1` [HIJ-892, (S)-2-([1,1′-biphenyl]-3-carboxamido)-3-(4-(4-(pyridin-2-ylamino)butanamido)phenyl)propanoic acid], for which the pIC50 is 5.00 to 7.00. Take `Cc1ccnc(NCCCC(=O)Nc2ccc(C[C@H](NC(=O)c3c(Cl)cccc3Cl)C(=O)O)cc2)c1` [HU-899]: the pIC50 was greater than 7.00.

Regarding `N=C(N)NCCc1cn(-c2ccc(C[C@H](NC(=O)c3c(Cl)cccc3Cl)C(=O)O)cc2)nn1` [JM-39, (S)-2-(2,6-dichlorobenzamido)-3-(4-(4-(2-guanidinoethyl)-1H-1,2,3-triazol-1-yl)phenyl)propanoic acid], the negative logarithm of the IC50 (pIC50) was 5.00 to 7.00. The figure for `O=C(CCCCNC1=NCCN1)Nc1ccc(C[C@H](NC(=O)c2c(Cl)cccc2Cl)C(=O)O)cc1` [JM-61] is 5.00 to 7.00. In the case of `N=C(N)NCCCn1cc(-c2ccc(C[C@H](NC(=O)c3c(Cl)cccc3Cl)C(=O)O)cc2)nn1` [JM-141], the pIC50 is greater than 7.00.

As for `N=C(N)Nc1ccc2c(c1)C(=O)N(c1ccc(C[C@H](NC(=O)c3c(Cl)cccc3Cl)C(=O)O)cc1)CC2` [JM-175], the pIC50 is 5.00 to 7.00.

As for `N=C(N)NCCCc1coc(-c2ccc(C[C@H](NC(=O)c3c(Cl)cccc3Cl)C(=O)O)cc2)n1` [JM-185], the pIC50 was 5.00 to 7.00. Take `N=C(N)NCCCc1csc(-c2ccc(C[C@H](NC(=O)c3c(Cl)cccc3Cl)C(=O)O)cc2)n1` [JM-192]: the pIC50 is 5.00 to 7.00. The figure for `O=C(N[C@@H](Cc1ccc(-n2cc(CNc3ccccn3)nn2)cc1)C(=O)O)c1c(Cl)cccc1Cl` [JM-230] is 5.00 to 7.00. Consider `O=C(CCCCNc1ccccn1)Nc1ccc(C[C@H](NC(=O)c2c(Cl)cccc2Cl)C(=O)O)cc1` [YT-43], for which the pIC50 was 5.00 to 7.00. Take `O=C(CCCc1ccc2c(n1)NCCC2)Nc1ccc(C[C@H](NC(=O)c2c(Cl)cccc2Cl)C(=O)O)cc1` [YT-101]: the pIC50 was 5.00 to 7.00.

As for `O=C(CCCNc1ccccn1)Nc1ccc(C[C@H](NC(=O)c2c(Cl)cccc2Cl)C(=O)O)cc1` [YT-103, (S)-2-(2,6-dichlorobenzamido)-3-(4-(4-(pyridin-2-ylamino)butanamido)phenyl)propanoic acid], the pIC50 was greater than 7.00. In the case of `N=C(N)NCCCC(=O)Nc1ccc(C[C@H](NC(=O)c2c(Cl)cccc2Cl)C(=O)O)cc1` [YT-107], the pIC50 is 5.00 to 7.00. The figure for `O=C(CCCCc1ccc2c(n1)NCCC2)Nc1ccc(C[C@H](NC(=O)c2c(Cl)cccc2Cl)C(=O)O)cc1` [YT-115] is 5.00 to 7.00; for `O=C(CCc1ccc2c(n1)NCCC2)Nc1ccc(C[C@H](NC(=O)c2c(Cl)cccc2Cl)C(=O)O)cc1` [YT-119] it is greater than 7.00.
